The source of these data is US8962662B2, “Antimicrobial compositions and methods of use thereof” (Byocoat Enterprises, Inc., priority 2011, dated 2015).

Entries after “also recorded” stand apart in the source; their conditions may differ.

The test system of experiment [1] is yeast and mold. The experiment in a line: Yeast and mold growth (CFU) on whole poultry carcasses after spray treatment, day 1 versus day 7. Format: cell-based. Particulars: for log growth in yeast and mold over 7 days: day 7 minus day 1 log average. How it is done:
(§1) The following solutions were prepared. A cetylpyridinium chloride (CPC) solution was prepared by combining 1.0 g of cetylpyridinium chloride (CAS No. 123-03-05) in 100 mL of water to form a nominal 1.0 wt % CPC test solution. An epsilon-polylysine (EPL) solution was prepared by combining 4.3 g epsilon-polylysine (CAS No. 25104-18-1) in water to form 100 mL of aqueous solution to form a nominal 4.3 wt % EPL test solution. The combination test solution was prepared by combining 1.0 g of cetylpyridinium chloride and 4.3 g epsilon-polylysine in water to form 100 mL of aqueous solution to form a standard concentration combination solution, and 3.7 g of this standard concentration solution was diluted up to 100 mL to form a combination test solution, which is diluted roughly 27-fold from the from the standard concentration solution.
(§2) The following test method was used. Whole poultry carcasses were collected from the processing line following evisceration and rinse. The carcasses were then treated with the CPC, EPL, or combined CPC+EPL products and dilution rates as listed above, using a Lillard spray application for 5 seconds. Following 10 seconds of dwell time, a 25 gram sample of the product was collected and immediately tested to establish a control sample set-point, and 325 grams of the same carcass were incubated at 37° C. for 168 hours (7 days). Following the incubation cycle, a second 25 gram sample was collected from the 325 gram control for testing evaluation of yeast and mold growth. A second 25 gram composite sample was collected from the same 325 gram control for pathogenic testing for salmonella presence. All samples were tested using AOAC accredited methods in an AOAC accredited API examined laboratory. Confirmation (split) samples were processed at ABC Research Laboratory.

Experiment [2] concerns Salmonella. The experiment in a line: Pathogenic testing for salmonella presence on treated poultry carcass samples after 7 day incubation. Format: cell-based. Particulars: for salmonella prevalence rate (samples tested positive): after 7 day incubation. How it is done: as §1, §2

As for `CCCCCCCCCCCCCCCC[n+]1ccccc1` [CPC, cetylpyridinium chloride], the “log growth in yeast and mold over 7 days” value in experiment [1] (CPC (1.0%) only) is 4.995 log. The “Log Avg, CPC Day 7” value in experiment [1] (average of 10 samples, cetylpyridinium chloride (1.0%), after 7 days at 37° C.) came out at 7.264. Besides, the “Log Avg, CPC Day 1” value in experiment [1] (average of 10 samples, cetylpyridinium chloride (1.0%), day 1 set-point) amounted to 2.269. For the same molecule, the “salmonella prevalence rate (samples tested positive)” value in experiment [2] (CPC (1.0%) only) came out at 20%.

On to ε-poly-L-lysine [EPL], for which the “log growth in yeast and mold over 7 days” value in experiment [1] (EPL (4.3%) only) is 3.677 log. For the same molecule, the “Log Avg, EPL Day 7” value in experiment [1] (average of 10 samples, ε-poly-L-lysine (4.3%), after 7 days at 37° C.) worked out at 6.97. For the same molecule, the “Log Avg, EPL Day 1” value in experiment [1] (average of 10 samples, ε-poly-L-lysine (4.3%), day 1 set-point) is reported as 3.293. For the same molecule, the “seven-day samples tested positive for Salmonella” value in experiment [2] (EPL (4.3%) only, 10 samples) is 4 of 10. In addition, the “salmonella prevalence rate (samples tested positive)” value in experiment [2] (EPL (4.3%) only) is listed as 40%. Moreover, in experiment [2] (ε-poly-L-lysine (4.3%), after 7 days at 37° C.), the “Salmonella, EPL Day 7” value is recorded as “NEGATIVE; also recorded: POSITIVE”.
